Test results: patent US20230167088A1, “1-PYRAZINYLPYRAZOLYL-3-OXYALKYL ACIDS AND THEIR DERIVATIVES, AND THEIR USE FOR CONTROL OF UNDESIRED PLANT GROWTH” (BAYER AKTIENGESELLSCHAFT, priority 2020, published 2023)

Legend:
[1] = tested on: ALOMY; experiment: Herbicidal post-emergence action 1a (greenhouse pots, visual rating); type: in vivo, Alopecurus myosuroides; settings: rated visually about 3 weeks after treatment, 100% = plants have died, 0% = like control plants
Summary of the method: (§1)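 Weeds and crops sown in sandy loam in greenhouse pots were sprayed post-emergence at the one-leaf stage (2–3 weeks after sowing) with WP or EC formulations plus 0.5% additive at 600 l/ha water, 320 and/or 80 g/ha. About 3 weeks later damage was rated visually against untreated controls (0% = no effect, 100% = dead).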

[2] = tested on: AVEFA; experiment: as above; type: in vivo, Avena fatua; settings: rated visually about 3 weeks after treatment, 100% = plants have died, 0% = like control plants
Summary of the method: as §1

[3] = tested on: ECHCG; experiment: as above; type: in vivo, Echinochloa crus-galli; settings: rated visually about 3 weeks after treatment, 100% = plants have died, 0% = like control plants
Summary of the method: as §1

[4] = tested on: LOLRI; experiment: as above; type: in vivo, Lolium rigidum; settings: rated visually about 3 weeks after treatment, 100% = plants have died, 0% = like control plants
Summary of the method: as §1

[5] = tested on: SETVI; experiment: as above; type: in vivo, Setaria viridis; settings: rated visually about 3 weeks after treatment, 100% = plants have died, 0% = like control plants
Summary of the method: as §1

[6] = tested on: MATIN; experiment: as above; type: in vivo, Matricaria inodora; settings: visual rating about 3 weeks after treatment
Summary of the method: as §1

[7] = tested on: PHBPU; experiment: as above; type: in vivo, Pharbitis purpurea; settings: visual rating about 3 weeks after treatment
Summary of the method: as §1

[8] = tested on: POLCO; experiment: as above; type: in vivo, Polygonum convolvulus; settings: visual rating about 3 weeks after treatment
Summary of the method: as §1

[9] = tested on: VERPE; experiment: as above; type: in vivo, Veronica persica; settings: visual rating about 3 weeks after treatment
Summary of the method: as §1

[10] = tested on: ALOMY; experiment: Herbicidal pre-emergence action 2a (greenhouse pots, visual scoring); type: in vivo, Alopecurus myosuroides; settings: dosage 320 g/ha, visual scoring after about 3 weeks
Summary of the method: (§2)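 Pre-emergence greenhouse pot test: WP or EC formulations sprayed onto covering soil over sown seeds at 600 l/ha water with 0.5% additive, at rates corresponding to 320 g/ha and/or 80 g/ha. Visual % activity versus untreated controls after about 3 weeks (100% = plants dead).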

[11] = tested on: AVEFA; experiment: as above; type: in vivo, Avena fatua; settings: dosage 320 g/ha, visual scoring after about 3 weeks
Summary of the method: as §2

[12] = tested on: ECHCG; experiment: as above; type: in vivo, Echinochloa crus-galli; settings: dosage 320 g/ha, visual scoring after about 3 weeks
Summary of the method: as §2

[13] = tested on: LOLRI; experiment: as above; type: in vivo, Lolium rigidum; settings: dosage 320 g/ha, visual scoring after about 3 weeks vs untreated controls
Summary of the method: as §2

[14] = tested on: SETVI; experiment: as above; type: in vivo, Setaria viridis; settings: dosage 320 g/ha, visual scoring after about 3 weeks vs untreated controls
Summary of the method: as §2

[15] = tested on: ABUTH; experiment: as above; type: in vivo, Abutilon theophrasti; settings: dosage 320 g/ha, visual scoring after about 3 weeks vs untreated controls
From the text: [table] a) Seeds of monocotyledonous and dicotyledonous weed plants and crop plants are placed in plastic or organic plant pots and covered with soil. The compounds of the invention, formulated in the form of wettable powders (WP) or as emulsion concentrates (EC), are then applied onto the surface of the covering soil as aqueous suspension or emulsion with addition of 0.5% additive at a water application rate of 600 1/ha (converted). After the treatment, the pots are placed in a greenhouse and kept under good growth conditions for the trial plants. After about 3 weeks, the effect of the preparations is scored visually in comparison with untreated controls as percentages. For example, 100% activity=the plants have died, 0% activity=like control plants. Tables B1 to B15 below show the effects of selected compounds of the general formula (I) according to Tables 1 and 2 on various harmful plants and an application rate corresponding to 320 g/ha and/or 80 g/ha, which were obtained by the experimental procedure mentioned above.

[16] = tested on: AMARE; experiment: as above; type: in vivo, Amaranthus retroflexus; settings: dosage 320 g/ha, visual scoring after about 3 weeks vs untreated controls
Summary of the method: as §2

[17] = tested on: MATIN; experiment: as above; type: in vivo, Matricaria inodora; settings: dosage 320 g/ha, visual scoring after about 3 weeks vs untreated controls
Summary of the method: as §2

[18] = tested on: PHBPU; experiment: as above; type: in vivo, Pharbitis purpurea; settings: dosage 320 g/ha, visual scoring after about 3 weeks vs untreated controls
Summary of the method: as §2

[19] = tested on: POLCO; experiment: as above; type: in vivo, Polygonum convolvulus; settings: dosage 320 g/ha, visual scoring after about 3 weeks vs untreated controls
Summary of the method: as §2

[20] = tested on: VERPE; experiment: as above; type: in vivo, Veronica persica; settings: dosage 320 g/ha, visual scoring after about 3 weeks vs untreated controls
Summary of the method: as §2

[21] = tested on: AMARE; experiment: Herbicidal post-emergence action 1a (greenhouse pots, visual rating); type: in vivo, Amaranthus retroflexus; settings: visual rating about 3 weeks after treatment
Summary of the method: as §1

Compound | Post-emergence action against ALOMY in % ([1]; Dosage 320 g/ha) [%] | Post-emergence action against AVEFA in % ([2]; Dosage 320 g/ha) [%] | Post-emergence action against ECHCG in % ([3]; Dosage 80 g/ha) [%] | Post-emergence action against ECHCG in % ([3]; Dosage 320 g/ha) [%] | Post-emergence action against LOLRI in % ([4]; Dosage 80 g/ha) [%] | Post-emergence action against LOLRI in % ([4]; Dosage 320 g/ha) [%] | Post-emergence action against SETVI in % ([5]; Dosage 80 g/ha) [%] | Post-emergence action against SETVI in % ([5]; Dosage 320 g/ha) [%] | Post-emergence action against MATIN in % ([6]; dosage 80 g/ha) [%] | Post-emergence action against MATIN in % ([6]; dosage 320 g/ha) [%] | Post-emergence action against PHBPU in % ([7]; dosage 80 g/ha) [%] | Post-emergence action against PHBPU in % ([7]; dosage 320 g/ha) [%] | Post-emergence action against POLCO in % ([8]; dosage 80 g/ha) [%] | Post-emergence action against POLCO in % ([8]; dosage 320 g/ha) [%] | Post-emergence action against VERPE in % ([9]; dosage 80 g/ha) [%] | Post-emergence action against VERPE in % ([9]; dosage 320 g/ha) [%] | Pre-emergence action against ALOMY in % [10] [%] | Pre-emergence action against AVEFA in % [11] [%] | Pre-emergence action against ECHCG in % [12] [%] | Pre-emergence action against LOLRI in % [13] [%] | further results
C[C@@H](Oc1nn(-c2cnccn2)c(-c2cncc(F)c2)c1Br)C(=O)O [Example I-96] | 100 | 90 | 80 | 90 | 100 | 100 | 90 | 90 | 80 | 90 | 90 | 90 | 80 | 80 | 90 | 90 | 100 | 90 | 100 | 100 | Pre-emergence action against SETVI in % [14]: 100%; Pre-emergence action against ABUTH in % [15]: 90%; Pre-emergence action against AMARE in % [16]: 100%; Pre-emergence action against MATIN in % [17]: 100%; Pre-emergence action against PHBPU in % [18]: 90%; Pre-emergence action against POLCO in % [19]: 100%; Pre-emergence action against VERPE in % [20]: 100%
CCOC(=O)[C@@H](C)Oc1nn(-c2cnccn2)c(-c2cncc(F)c2)c1Br [Example I-99] | 100 | 100 | 90 | 90 | 100 | 100 | 90 | 90 | 80 | 90 | 80 | 90 | 80 | 80 | 90 | 90 | 100 | 90 | 100 | 100 | Post-emergence action against ALOMY in % ([1]; Dosage 80 g/ha): 80%; Post-emergence action against AVEFA in % ([2]; Dosage 80 g/ha): 80%; Post-emergence action against AMARE in % ([21]; dosage 80 g/ha): 90%; Post-emergence action against AMARE in % ([21]; dosage 320 g/ha): 90%; Pre-emergence action against SETVI in % [14]: 100%; Pre-emergence action against ABUTH in % [15]: 90%; Pre-emergence action against AMARE in % [16]: 100%; Pre-emergence action against MATIN in % [17]: 100%; Pre-emergence action against PHBPU in % [18]: 90%; Pre-emergence action against POLCO in % [19]: 90%; Pre-emergence action against VERPE in % [20]: 100%
